The values below come from US12310963B2, “Pyrazole derivatives and use thereof” (Tarapeutics Science Inc., priority 2019, dated 2025).

For one experiment, the system named is BaF3. The experiment in a line: Growth of parental BaF3 cells, Cell Titer-Glo, 72 h. The settings on record: Mus musculus. The experiment is classed as cell-based. The source says: (§1) In this example, mouse primary B cell BaF3 (purchased from ATCC, U.S.A.) was used. In addition, in this example, mouse BaF3-tel-PDGFRα (stably expressing PDGFRα kinase), mouse BaF3-tel-PDGFRβ (stably expressing PDGFRβ kinase), BaF3-P210 (stably expressing ABL kinase), BaF3-P210-T315I (stably expressing ABL-T315I kinase), BaF3-FL-BRAF-V600E (stably expressing BRAF-V600E kinase), BaF3-TEL-cKIT (stably expressing cKIT kinase), BaF3-TEL-VEGFR2 (stably expressing VEGFR2 kinase), BaF3-TEL-FGFR2 (stably expressing FGFR2 kinase) were also used. The above-mentioned cell trains were all constructed in our laboratory by the method as follows. The sequences of human BCR-ABL (P210 or P210/T315I mutated), full-length BRAF-V600E, cKIT, VEGFR2, FGFR2, PDGFRα, PDGFRβ kinase region were amplified respectively via PCR, and inserted respectively into a MSCV-Puro vector (purchased from Clontech) having a N-terminal TEL fragment and/or NPM fragment and/or TPR fragment, and stably transferred into mouse BaF3 cells by the retroviral method, and the growth factor IL-3 was removed. Eventually, cell lines which are transferred into proteins depending on PDGFRα, PDGFRβ were obtained.
(§2) In this example, solutions of the test compound at different concentrations (0.000508 μM, 0.00152 μM, 0.00457 μM, 0.0137 μM, 0.0411 μM, 0.123 μM, 0.370 μM, 1.11 μM, 3.33 μM, 10 μM) were added to the above cells. The cells were incubated for 72 hours.
For orientation: Cellular ATP, detected with luciferase, serves as a proxy for viable cell number.

The test system of experiment [1] is BaF3-tel-PDGFRβ (stably expressing PDGFRβ kinase). The experiment in a line: Growth of BaF3-tel-PDGFRβ cells, Cell Titer-Glo, 72 h. The experiment is classed as cell-based, mouse.
Excerpt: as §1, §2

Experiment [2] concerns BaF3-tel-PDGFRα (stably expressing PDGFRα kinase). Description: Growth of BaF3-tel-PDGFRα cells, Cell Titer-Glo, 72 h. The experiment is classed as cell-based, mouse.
Excerpt: as §1, §2

Experiment [3] relates to pulmonary arterial hypertension (PAH). The experiment in a line: Rat model of pulmonary arterial hypertension (PAH), monocrotaline-induced. The experiment is classed as in vivo. The note with it: 50 mg/kg by gavage, 28 days. As for the experimental part: SCXK (SU) 2017-0001. These rats were fed with conventional pellet feeds (Jiangsu Xietong Bio. Co., Ltd.), and were raised in a clean animal room with 12h/12h light/dark cycle. The rats were fed with foods and drinking water on an ad libitum basis. The temperature was maintained at 20-26° C., and the relative humidity was 40-70%. 120 SD rats were divided into 24 cages with 5 rats per group. […] The animals were treated in strict accordance with animal ethics regulations throughout the experiment. According to the method described in “Pharmaceutical experimental animal models: Fabrication and application” and the Standard Operating Procedure for PAH Model Construction of Model Animal Center, rats were intraperitoneally injected with a solution of 1% monocrotaline (MCT, purchased from Sigma, U.S.A.) once at a dose of 35 mg/kg. On Day 7 after the first injection of MCT, MCT was injected again at a dose of 20 mg/kg. The rats in the normal control group were intraperitoneally injected with an equivalent amount of water as a blank solvent. The specific steps were as follows: After the rats in each of the cages were fasted for 8 hours, each of the rats was weighed and recorded for the basic body weight after fasting; based on the measured basic body weight for each of the rats, the amount of MCT required to be injected for each of the rats was calculated according to the modeling dose of 35 mg/kg; based on the amount of MCT required to be injected for each of the rats, the dose for injection of a 1% MCT solution was calculated; the rats were fixed in a holder and intraperitoneally injected with the 1% MCT solution at the calculated dose; the rats were returned to the cages for routine feeding after the injection. […] The blood gas analyzer was operated following the standard operation procedure. […] Each of the rats was administered by gavage once a day starting from the day of regrouping at Week 4. The rats in the negative control group were daily administered by gavage with an equal volume of methylcellulose as vehicle. The rats in each of the groups were administered by gavage for consecutive 4 weeks (i.e., 28 days). […] The rats were weighed after fasting overnight twice a week. The administration dosage was calculated based on the weighing results. […] After the rats were under anesthesia, the pulmonary arterial pressure and the right ventricular systolic pressure of rats were measured. […] The steps were as follows. A No. 3.5 umbilical vein catheter was connected to a system pressure transducer. A formulated solution of […] sodium (purchased from Sangon) was filled into the transducer and the catheter, and bubbles were discharged. The anesthetized rat was placed on a surgical anatomical plate that is adjustable in its temperature. The temperature of the plate was adjusted to be maintained at about 37° C. The rat was fixed in supine position. The neck skin was cut with scissors to the edge of the clavicle, followed by blunt dissection of subcutaneous tissues and muscles, exposing the right external jugular vein. The adipose tissue on the surface was removed with ophthalmic surgical scissors. The external jugular vein was ligated at the […] surgical thread, and a loose knot was made at the proximal end for reserve. The external jugular vein was gently lifted with ophthalmic tweezers and cut with ophthalmic scissors to make a “V” opening. The catheter was quickly inserted, and the loose knot at the proximal end was tightened slightly to prevent bleeding. […] The catheter was further inserted slowly forward, and entered into the pulmonary artery at about 5 cm. […] The blood was transferred into an anticoagulation tube, and loaded in a blood gas analyzer to determine the indexes of partial pressure of oxygen (pO2), partial pressure of carbon dioxide (pCO2) and blood oxygen saturation (SaO2) in the blood.

In general, GI50 refers to the concentration that inhibits growth by half.

Structures are written as SMILES.

On to `CN1CCN(c2cncc(-c3cn(-c4cc(NC(=O)c5cccc(F)n5)ccc4F)nn3)c2)CC1` [Compound 29, 6-fluoro-N-(4-fluoro-3-(4-(5-(4-methylpiperazin-1-yl)pyridin-3-yl)-1H-1,2,3-triazol-1-yl)phenyl)picolinamide], for which the values for the GI50 (with BaF3; in experiment [1]; in experiment [2]) were 2840 nM, less than 10 nM and less than 10 nM, respectively.

Take `Cc1ccc(NC(=O)c2cccc(C(F)(F)F)n2)cc1-n1cc(-c2cncc(N3CC4(COC4)C3)c2)cn1` [Compound 32, N-(3-(4-(5-(2-oxa-6-aza-spiro[3.3]hept-6-yl]pyridin-3-yl)-1H-pyrazol-1-yl)-4-methylphenyl)-6-(trifluoromethyl)picolinamide]: the GI50 is 9200 nM in the experiment on BaF3, less than 10 nM in experiment [1] and less than 10 nM in experiment [2].

For `Cc1ccc(NC(=O)c2ccnc(C(F)(F)F)c2)cc1-n1cc(-c2cnccc2OCC2CCOCC2)cn1` [Compound 3, N-(4-methyl-3-(4-(4-((tetrahydropyran-4-yl)methoxy)pyridin-3-yl)-1H-pyrazol-1-yl)phenyl)-2-(trifluoromethyl)isonicotinamide], the GI50 in the experiment with BaF3 amounted to 6500 nM; in experiment [1], 1.4 nM; in experiment [2] it was 1.4 nM.

Turning to `Cc1ccc(NC(=O)c2ccnc(C(F)(F)F)c2)cc1-n1cc(-c2cncc(N3CC4(COC4)C3)c2)cn1` [Compound 33, N-(3-(4-(5-(2-oxa-6-aza-spiro[3.3]hept-6-yl]pyridin-3-yl)-1H-pyrazol-1-yl)-4-methylphenyl)-2-(trifluoromethyl)isonicotinamide], the GI50 is 6490 nM in the experiment on BaF3, less than 10 nM in experiment [1] and less than 10 nM in experiment [2].

In the case of `Cc1ccc(NC(=O)c2cccc(C(F)(F)F)n2)cc1-n1cc(-c2cnccc2OC2COC2)cn1` [Compound 6, N-(4-methyl-3-(4-(4-(oxetan-3-yloxy)pyridin-3-yl)-1H-pyrazol-1-yl)phenyl)-6-(trifluoromethyl)picolinamide], the values for the 50% growth inhibitory concentration (GI50) (with BaF3; in experiment [1]; in experiment [2]) were greater than 10000 nM, 1 nM and less than 0.3 nM, respectively.

Consider `CN1CCN(c2cncc(-c3cn(-c4cc(NC(=O)c5cccc(C(F)(F)F)n5)ccc4F)nn3)c2)CC1` [Compound 24, N-(4-fluoro-3-(4-(5-(4-methylpiperazin-1-yl)pyridin-3-yl)-1H-1,2,3-triazol-1-yl)phenyl)-6-(trifluoromethyl)picolinamide], for which the concentration for 50% growth inhibition (GI50) in the experiment with BaF3 is 4760 nM; in experiment [1], less than 10 nM; in experiment [2] it was less than 10 nM.

Take `Cc1ccc(NC(=O)c2ccnc(C(F)(F)F)c2)cc1-n1cc(-c2cncc(N3CC4(COC4)C3)c2)nn1` [Compound 39, N-(3-(4-(5-(2-oxa-6-aza-spiro[3.3]hept-6-yl]pyridin-3-yl)-1H-1,2,3-triazol-1-yl)-4-methylphenyl)-2-(trifluoromethyl)isonicotinamide]: the GI50 in the experiment with BaF3 is greater than 10000 nM; in experiment [1], less than 10 nM; in experiment [2], less than 10 nM.

On to `Cc1ccc(NC(=O)c2cccc(Cl)n2)cc1-n1cc(-c2cncc(N3CC4(COC4)C3)c2)cn1` [Compound 36, N-(3-(4-(5-(2-oxa-6-aza-spiro[3.3]hept-6-yl]pyridin-3-yl)-1H-pyrazol-1-yl)-4-methylphenyl)-6-chloropicolinamide], for which the concentration for 50% growth inhibition (GI50) is 9760 nM in the experiment on BaF3, less than 10 nM in experiment [1] and less than 10 nM in experiment [2].

For `Cc1ccc(NC(=O)c2cccc(C(F)(F)F)n2)cc1-n1cc(-c2cnccc2OCC2CCOCC2)cn1` [Compound 13, N-(4-methyl-3-(4-(4-((tetrahydropyran-4-yl)methoxy)pyridin-3-yl)-1H-pyrazol-1-yl)phenyl)-6-(trifluoromethyl)picolinamide], the GI50 with BaF3 is greater than 10000 nM; in experiment [1], 5.5 nM; in experiment [2] it was 1.6 nM.

With `Cc1ccc(NC(=O)c2ccnc(C(F)(F)F)c2)cc1-n1cc(-c2cncc(N3CCN(C)CC3)c2)cn1` [Compound 2, N-(4-methyl-3-(4-(5-(4-methylpiperazin-1-yl)pyridin-3-yl)-1H-pyrazol-1-yl)phenyl)-2-(trifluoromethyl)isonicotinamide], the results for the concentration for 50% growth inhibition (GI50) (in the experiment on BaF3; in experiment [1]; in experiment [2]) were 9290 nM, 40 nM and 2.8 nM, respectively.

With `Cc1ccc(NC(=O)c2cncc(C(F)(F)F)c2)cc1-n1cc(-c2cncc(N3CCN(C)CC3)c2)nn1` [Compound 20, N-(4-methyl-3-(4-(5-(4-methylpiperazin-1-yl)pyridin-3-yl)-1H-1,2,3-triazol-1-yl)phenyl)-5-(trifluoromethyl)nicotinamide], the values for the GI50 (in the experiment with BaF3; in experiment [1]; in experiment [2]) were 5070 nM, less than 10 nM and less than 10 nM, respectively.

As to `Cc1ccc(NC(=O)c2cc(C(F)(F)F)ccn2)cc1-n1cc(-c2cncc(N3CC4(COC4)C3)c2)cn1` [Compound 35, N-(3-(4-(5-(2-oxa-6-aza-spiro[3.3]hept-6-yl]pyridin-3-yl)-1H-pyrazol-1-yl)-4-methylphenyl)-4-(trifluoromethyl)picolinamide], the 50% growth inhibitory concentration (GI50) is 5840 nM in the experiment on BaF3, less than 10 nM in experiment [1] and less than 10 nM in experiment [2].

For the molecule `CN1CCN(c2cncc(-c3cn(-c4cc(NC(=O)c5ccnc(C(F)(F)F)c5)ccc4F)nn3)c2)CC1` [Compound 25, N-(4-fluoro-3-(4-(5-(4-methylpiperazin-1-yl)pyridin-3-yl)-1H-1,2,3-triazol-1-yl)phenyl)-2-(trifluoromethyl) isonicotinamide], the GI50 in the experiment on BaF3 is 5550 nM; in experiment [1] it was less than 10 nM; in experiment [2] it was less than 10 nM.

`COc1ccccc1Oc1c(NS(=O)(=O)c2ccc(C(C)(C)C)cc2)nc(-c2ncccn2)nc1OCCO` [bosentan, reference compound]: in experiment [3], the “RVI (right ventricular hypertrophy index) decrease as compared with the negative control group” value is reported as 15.7%.

Consider `Cc1ccc(NC(=O)c2cccc(F)n2)cc1-n1cc(-c2cncc(N3CC4(COC4)C3)c2)cn1` [Compound 37, N-(3-(4-(5-(2-oxa-6-aza-spiro[3.3]hept-6-yl]pyridin-3-yl)-1H-pyrazol-1-yl)-4-methylphenyl)-6-fluoropicolinamide], for which the GI50 was 9850 nM in the experiment on BaF3, less than 10 nM in experiment [1] and less than 10 nM in experiment [2].
